Measurements from publication PMC6639853, “Deciphering Direct and Indirect Effects of Neurokinin B and GnRH in the Brain-Pituitary Axis of Tilapia” (Frontiers in Endocrinology, 2019).
Where “and” joins values, the source holds several entries; their conditions need not be identical. Identical values can stand only once. Like-named read-outs stand apart in the source and are kept apart here. Starred links: 1 amine or outer side, 2 acyl side, 3 side chain; linkers in the order of their positions; H or OH if unused. Non-standard residues stand in square brackets, D forms with d. Residues, ends and D or L forms follow the SMILES beside them. NMeF = CN[C@@H](Cc1ccccc1)C(=O)O; pGlu = O=C1CC[C@@H](C(=O)O)N1; Suc = O=C(CCC(=O)[*:2])[*:1]

What was measured:
[1] = test system: female tilapia pituitary; experiment: In vivo effect on pituitary gh, fsh and lh mRNA expression (real-time PCR); set-up: species or system Nile tilapia (O. niloticus); conditions: 24 h post IP injection, 100 μg/kg BW
Method: Adult female tilapia (BW 89.29 ± 32.93 g) were injected IP with saline, sGnRH analog ([…]; 10 μg/kg BW; [[…],[…]-Net]-mammalian GnRH; Bachem), tiNKB, tiNKF, or their analogs at 100 μg/kg BW (n = 8 fish per group). The fish were bled from the caudal blood vessels into heparinized syringes 1, 2, 4, 8, and 24 h after injection and blood was centrifuged (3,200 rpm for 30 min at 4°C) to obtain plasma samples, which were stored at -20°C until assayed. This time course is according to standard protocols used previously ([28], [29]) to test the effect of GnRH and other hypothalamic neuropeptides on circulating levels of LH, FSH, and GH in tilapia. Blood samples were collected from the caudal vasculature. Three independent experiments were carried out for the in vivo studies. Pituitaries and three parts of the brain [the olfactory bulbs and telencephalon (front brain), the optic tectum and diencephalon (mid brain), and the cerebellum (hind brain)] were harvested at the end of each in vivo experiment, snap-frozen in liquid nitrogen, and stored at -80°C until extraction. Total RNA was extracted by phenol-chloroform using TRIzol reagent (Invitrogen) and precipitated with ethanol, and 1 μg was used as a template for cDNA synthesis using Verso cDNA kit (Thermo Scientific, Waltham, MA). Real-time PCR analysis was performed according to Biran et al. ([10], [20]). The specificity of the amplification was tested at the end of the PCR by melting-curve analysis and sequencing the PCR products.

[2] = target: tiTac3rb (Oreochromis niloticus, UniProt A0A075QUD7); experiment: cell-based; conditions: COS-7 cells, mean ± SEM
From the text: (§2) Receptor transactivation assays were generally performed according to Biran et al. ([10]). Briefly, in order to study the signaling pathways of the novel fish NKB and NKF analogs, the entire coding sequence of tiTac3ra (GenBank accession no. KF471674), tiTac3rb (GenBank accession no. KF471675), zfTac3ra (GenBank accession no. JF317292) and zfTac3rb (GenBank accession no. JF317293) were inserted into pcDNA3.1 (Invitrogen). To differentiate between the protein kinase A (PKA) and PKC signal transduction pathways, we used a sensitive luciferase (Luc) reporter gene assay. […] Three micrograms of each construct together with three micrograms of a luciferase reporter plasmid were transiently co-transfected into COS-7 cells. […] EC50 values were calculated from dose response curves by means of computerized non-linear curve fitting on baseline-corrected (control) values using Prism version 6 software (GraphPad).

[3] = target: T1, zfTac3rb (Danio rerio, UniProt F1R3V0); experiment: CRE-/SRE-Luc receptor transactivation reporter assay in COS-7 cells, zebrafish Tac3rb; type: cell-based; conditions: mean ± SEM
T1 sequence (F1R3V0 1-395): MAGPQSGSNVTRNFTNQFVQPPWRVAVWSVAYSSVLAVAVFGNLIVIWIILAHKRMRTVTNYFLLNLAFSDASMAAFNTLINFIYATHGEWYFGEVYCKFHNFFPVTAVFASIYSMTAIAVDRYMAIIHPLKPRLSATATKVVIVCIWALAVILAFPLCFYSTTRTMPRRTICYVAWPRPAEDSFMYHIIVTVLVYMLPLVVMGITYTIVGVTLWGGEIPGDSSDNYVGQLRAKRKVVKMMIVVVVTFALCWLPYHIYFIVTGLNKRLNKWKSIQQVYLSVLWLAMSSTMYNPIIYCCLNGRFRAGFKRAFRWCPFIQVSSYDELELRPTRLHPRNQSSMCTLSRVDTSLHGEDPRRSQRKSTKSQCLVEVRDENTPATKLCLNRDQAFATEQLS
From the text: (§1) Receptor transactivation assays were generally performed according to Biran et al. ([10]). Briefly, in order to study the signaling pathways of the novel fish NKB and NKF analogs, the entire coding sequence of tiTac3ra (GenBank accession no. KF471674), tiTac3rb (GenBank accession no. KF471675), zfTac3ra (GenBank accession no. JF317292) and zfTac3rb (GenBank accession no. JF317293) were inserted into pcDNA3.1 (Invitrogen). To differentiate between the protein kinase A (PKA) and PKC signal transduction pathways, we used a sensitive luciferase (Luc) reporter gene assay. […] The cDNA clone for human TAC3R was obtained from the Missouri S&T cDNA Resource Center (www.cdna.org). Three micrograms of each construct together with three micrograms of a luciferase reporter plasmid were transiently co-transfected into COS-7 cells. […] EC50 values were calculated from dose response curves by means of computerized non-linear curve fitting on baseline-corrected (control) values using Prism version 6 software (GraphPad).

[4] = test system: female tilapia; experiment: In vivo effect on GH, FSH and LH plasma levels (ELISA) after IP injection; set-up: species or system Nile tilapia (O. niloticus); conditions: peptides/analogs 100 μg/kg BW
Method: Adult female tilapia (BW 89.29 ± 32.93 g) were injected IP with saline, sGnRH analog ([…]; 10 μg/kg BW; [[…],[…]-Net]-mammalian GnRH; Bachem), tiNKB, tiNKF, or their analogs at 100 μg/kg BW (n = 8 fish per group). The fish were bled from the caudal blood vessels into heparinized syringes 1, 2, 4, 8, and 24 h after injection and blood was centrifuged (3,200 rpm for 30 min at 4°C) to obtain plasma samples, which were stored at -20°C until assayed. This time course is according to standard protocols used previously ([28], [29]) to test the effect of GnRH and other hypothalamic neuropeptides on circulating levels of LH, FSH, and GH in tilapia. Blood samples were collected from the caudal vasculature. Three independent experiments were carried out for the in vivo studies. Levels of LH, FSH, and GH in the plasma were measured by specific competitive ELISAs developed for tilapia ([30], [31]) based on recombinant ([…] or rtiGH. Primary antisera was produced against […]β, or rtGH ([31]), and […]βα ([28]) or rtGH was used for generating the standard curves.

[5] = target: T2, huTAC3R (NK3R) (Homo sapiens, UniProt P29371); experiment: CRE-/SRE-Luc receptor transactivation reporter assay in COS-7 cells, human TAC3R; type: cell-based; conditions: mean ± SEM
T2 construct: host or cells: COS-7
T2 sequence (P29371 1-465): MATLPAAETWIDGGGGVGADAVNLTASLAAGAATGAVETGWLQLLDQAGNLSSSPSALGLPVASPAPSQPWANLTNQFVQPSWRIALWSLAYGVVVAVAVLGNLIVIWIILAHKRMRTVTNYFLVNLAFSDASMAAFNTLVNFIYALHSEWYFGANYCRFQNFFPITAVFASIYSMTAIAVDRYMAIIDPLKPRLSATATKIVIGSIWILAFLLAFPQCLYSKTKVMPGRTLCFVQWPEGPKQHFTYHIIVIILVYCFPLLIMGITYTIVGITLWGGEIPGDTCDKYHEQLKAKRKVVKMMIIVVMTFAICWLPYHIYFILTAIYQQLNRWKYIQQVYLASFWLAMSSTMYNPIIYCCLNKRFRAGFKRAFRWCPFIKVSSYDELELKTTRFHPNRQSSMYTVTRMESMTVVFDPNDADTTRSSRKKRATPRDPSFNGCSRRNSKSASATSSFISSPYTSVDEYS
From the text: as §1

[6] = target: T3, tiTac3ra (Oreochromis niloticus, UniProt A0A075QPN8); experiment: cell-based; conditions: COS-7 cells, mean ± SEM
From the text: as §2

[7] = target: T4, zfTac3ra (Danio rerio, UniProt H6A6A7); experiment: CRE-/SRE-Luc receptor transactivation reporter assay in COS-7 cells, zebrafish Tac3ra; type: cell-based; conditions: mean ± SEM
T4 sequence (H6A6A7 1-399): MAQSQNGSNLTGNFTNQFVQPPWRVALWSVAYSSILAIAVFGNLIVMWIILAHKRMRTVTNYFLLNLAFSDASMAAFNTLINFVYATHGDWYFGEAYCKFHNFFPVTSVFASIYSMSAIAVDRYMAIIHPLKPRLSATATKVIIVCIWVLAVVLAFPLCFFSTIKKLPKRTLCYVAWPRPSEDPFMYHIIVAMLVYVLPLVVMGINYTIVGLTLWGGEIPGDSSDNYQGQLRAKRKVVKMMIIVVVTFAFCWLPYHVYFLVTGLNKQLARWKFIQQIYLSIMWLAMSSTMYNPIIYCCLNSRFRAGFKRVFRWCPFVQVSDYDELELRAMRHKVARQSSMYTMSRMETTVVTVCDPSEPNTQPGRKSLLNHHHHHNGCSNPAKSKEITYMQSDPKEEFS
From the text: as §1

[8] = target: T3, tiTac3ra; conditions: read-out: EC50 tiTac3ra SRE; SRE-Luc reporter (PKC/Ca2+), COS-7 cells, mean ± SEM
From the text: as §2

[9] = EC50 tiTac3rb CRE, CRE-Luc reporter (PKA/cAMP)
[10] = EC50 tiTac3rb SRE, SRE-Luc reporter (PKC/Ca2+)
[11] = SRE-Luc reporter (PKC/Ca2+), read-out: EC50 huTAC3R (NK3R) SRE
[12] = EC50 tiTac3ra CRE, CRE-Luc reporter (PKA/cAMP)
[13] = EC50 tiTac3ra SRE, SRE-Luc reporter (PKC/Ca2+)

Sequence of tiTac3rb (A0A075QUD7 1-361): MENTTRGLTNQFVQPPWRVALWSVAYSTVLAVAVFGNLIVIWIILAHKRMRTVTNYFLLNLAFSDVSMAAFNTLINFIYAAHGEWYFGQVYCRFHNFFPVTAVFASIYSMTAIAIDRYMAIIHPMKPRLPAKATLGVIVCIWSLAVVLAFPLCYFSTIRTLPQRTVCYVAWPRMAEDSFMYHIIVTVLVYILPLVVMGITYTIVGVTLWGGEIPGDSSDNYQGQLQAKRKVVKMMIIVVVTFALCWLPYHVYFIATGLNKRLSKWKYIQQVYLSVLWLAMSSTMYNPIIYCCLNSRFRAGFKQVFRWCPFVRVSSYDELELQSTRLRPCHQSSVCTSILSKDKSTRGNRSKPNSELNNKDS
T3 sequence (A0A075QPN8 1-415): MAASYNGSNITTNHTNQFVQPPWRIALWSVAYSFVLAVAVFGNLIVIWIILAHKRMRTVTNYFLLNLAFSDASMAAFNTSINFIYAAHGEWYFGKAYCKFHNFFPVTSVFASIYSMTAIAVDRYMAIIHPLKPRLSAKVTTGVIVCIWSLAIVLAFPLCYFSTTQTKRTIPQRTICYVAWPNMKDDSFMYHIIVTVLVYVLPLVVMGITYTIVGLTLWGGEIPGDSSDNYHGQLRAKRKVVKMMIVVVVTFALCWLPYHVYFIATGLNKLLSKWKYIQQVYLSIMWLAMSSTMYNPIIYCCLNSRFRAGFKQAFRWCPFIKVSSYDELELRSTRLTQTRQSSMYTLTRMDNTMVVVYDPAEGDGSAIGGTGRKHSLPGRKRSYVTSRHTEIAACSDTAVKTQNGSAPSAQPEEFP

CSCC[C@H](NC(=O)[C@H](CC(C)C)NC(=O)CNC(=O)[C@H](C(C)C)N(C)C(=O)[C@H](Cc1ccccc1)NC(=O)[C@H](CO)NC(=O)[C@H](CC(=O)O)NC(=O)CCC(=O)O)C(N)=O [NKF analog, Succ-Asp-Ser-Phe-N(Me)Val-Gly-Leu-Met-NH2]
GH mRNA expression in pituitary relative to control [1]: increased
LHβ mRNA expression in pituitary relative to control [1]: increased
EC50 [2, 9]: 160.6 ± 0.42 nM
EC50 [2, 10]: 74.89 ± 0.66 nM
EC50 ([3]; CRE-Luc reporter (PKA/cAMP), read-out: EC50 zfTac3rb CRE): 2.69 ± 0.38 nM
EC50 ([3]; SRE-Luc reporter (PKC/Ca2+), read-out: EC50 zfTac3rb SRE): 25.74 ± 0.24 nM
time post-injection at which plasma FSH was first increased [4]: 2 h
time post-injection at which plasma LH was first increased ([4]; sGnRHa 10 μg/kg BW): 1 h
EC50 [5, 11]: 43.2 ± 1.06 nM
EC50 [6, 12]: 2.57 ± 0.33 nM
EC50 [6, 13]: 1.73 ± 0.46 nM
EC50 ([7]; CRE-Luc reporter (PKA/cAMP), read-out: EC50 zfTac3ra CRE): 0.47 nM and 0.474 nM
EC50 ([7]; SRE-Luc reporter (PKC/Ca2+), read-out: EC50 zfTac3ra SRE): 1.15 ± 0.4 nM

CSCC[C@H](NC(=O)[C@H](CC(C)C)NC(=O)CNC(=O)[C@H](Cc1ccccc1)N(C)C(=O)[C@H](Cc1ccccc1)NC(=O)[C@H](CC(=O)O)NC(=O)CCC(=O)O)C(N)=O [Senktide] (Suc-DF[NMeF]GLM-NH2)
EC50 [2, 9]: 3541 ± 1.47 nM
EC50 [2, 10]: 50.16 ± 0.17 nM
EC50 [8]: 128 ± 35 nM
EC50 [6, 12]: 14.1 ± 0.61 nM

CC[C@H](C)[C@H](NC(=O)[C@H](Cc1ccccc1)NC(=O)[C@@H](NC(=O)[C@H](CC(=O)O)NC(=O)[C@H](CC(=O)O)NC(=O)[C@H](CCSC)NC(=O)[C@@H]1CCC(=O)N1)[C@@H](C)CC)C(=O)NCC(=O)N[C@@H](CC(C)C)C(=O)N[C@@H](CCSC)C(N)=O [tiNKB] ([pGlu]MDDIFIGLM-NH2)
FSHβ mRNA expression in pituitary relative to control [1]: increased
GH mRNA expression in pituitary relative to control [1]: increased
LHβ mRNA expression in pituitary relative to control [1]: increased
EC50 [2, 9]: 26.5 ± 0.27 nM
time post-injection at which plasma FSH was first increased [4]: 2 h
time post-injection at which plasma GH was first increased [4]: 1 h
duration of increased plasma LH post-injection ([4]; sGnRHa 10 μg/kg BW): up to 4 h
time post-injection at which plasma LH was first increased ([4]; sGnRHa 10 μg/kg BW): 2 h
EC50 ([5]; CRE-Luc reporter (PKA/cAMP), read-out: EC50 huTAC3R (NK3R) CRE): 3.38 ± 0.42 nM
EC50 [5, 11]: 0.02 nM
EC50 [6, 12]: 0.8 nM and 0.81 nM
EC50 [6, 13]: 7.41 ± 0.44 nM
